Experimental data as given in patent publication US20230346961A1, “GLP-1 AND GIP RECEPTOR CO-AGONISTS” (Novo Nordisk A/S, priority 2020, published 2023).
Starred links: 1 amine or outer side, 2 acyl side, 3 side chain; linkers in the order of their positions; H or OH if unused. Non-standard residues stand in square brackets, D forms with d. Residues, ends and D or L forms follow the SMILES beside them. Groups on a side chain read outwards from the residue. *: point of attachment. C20 diacid = O=C(O)CCCCCCCCCCCCCCCCCCC(=O)*; C18 diacid = O=C(O)CCCCCCCCCCCCCCCCC(=O)*; γGlu = O=C(O)[C@H](CCC(=O)[*:2])N[*:1]; εLys = N[C@@H](CCCCN[*:1])C(=O)[*:2]; Trx = NC[C@H]1CC[C@H](C(=O)O)CC1; AEEA = NCCOCCOCC(=O)O; Aib = CC(C)(N)C(=O)O

Assays:
mouse GLP-1 receptor = target: T1, mouse GLP-1 receptor (Mus musculus, UniProt O35659)
T1 sequence (O35659 22-463): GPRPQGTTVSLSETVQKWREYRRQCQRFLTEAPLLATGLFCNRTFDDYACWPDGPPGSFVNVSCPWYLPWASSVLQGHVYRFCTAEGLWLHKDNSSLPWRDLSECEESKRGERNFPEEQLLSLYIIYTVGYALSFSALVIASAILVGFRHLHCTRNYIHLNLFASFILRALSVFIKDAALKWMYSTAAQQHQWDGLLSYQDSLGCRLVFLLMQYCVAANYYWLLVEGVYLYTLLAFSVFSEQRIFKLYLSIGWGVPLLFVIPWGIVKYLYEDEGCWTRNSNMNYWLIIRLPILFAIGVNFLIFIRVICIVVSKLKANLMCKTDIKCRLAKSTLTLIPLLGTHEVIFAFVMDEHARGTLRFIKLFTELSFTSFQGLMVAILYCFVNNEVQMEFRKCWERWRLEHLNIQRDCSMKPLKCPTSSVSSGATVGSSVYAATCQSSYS

mouse GIP receptor = target: T2, mouse GIP receptor (Mus musculus, UniProt Q0P543); assay: cell-based
T2 sequence (Q0P543 19-460): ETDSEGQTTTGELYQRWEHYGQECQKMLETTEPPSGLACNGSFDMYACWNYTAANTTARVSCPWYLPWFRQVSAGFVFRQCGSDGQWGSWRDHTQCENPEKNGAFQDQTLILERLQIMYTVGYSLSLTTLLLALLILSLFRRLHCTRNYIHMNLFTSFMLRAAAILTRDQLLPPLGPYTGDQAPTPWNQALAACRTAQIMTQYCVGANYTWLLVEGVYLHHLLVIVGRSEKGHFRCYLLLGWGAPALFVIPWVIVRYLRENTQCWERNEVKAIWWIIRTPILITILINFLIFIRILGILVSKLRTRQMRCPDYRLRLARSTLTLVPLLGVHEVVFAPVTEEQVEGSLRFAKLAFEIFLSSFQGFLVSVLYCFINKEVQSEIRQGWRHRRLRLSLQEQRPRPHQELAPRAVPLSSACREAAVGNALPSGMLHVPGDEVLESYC
Description: (§1) The in vitro functional potency is the measure of target receptor activation in a whole cell assay.
(§2) In vitro functional potency was determined by measuring the response of the target receptor in a reporter gene assay in individual cell lines. […] When the respective receptor is activated, it results in the production of cAMP, which in turn results in expression of the luciferase protein. When assay incubation is completed, luciferase substrate (luciferin) is added resulting in the enzymatic conversion of luciferin to oxyluciferin and producing bioluminescence. The luminescence is measured as the readout for the assay.
(§3) The cells lines used in these assays were BHK cells with BHKTS13 as a parent cell line. The cell lines were derived from a clone containing the CRE luciferase element and were established by further transfection with the respective receptor to obtain the relevant cell line.
(§4) The cells were cultured at 37° C. with 5% CO2 in Cell Culture Medium. They were aliquoted and stored in liquid nitrogen. The cells were kept in continuous culture and were seeded out the day before each assay.
(§5) GLP-1R and GcgR Cell Culture Medium consisted of DMEM medium with 10% FBS, 500 μg/mL G418, and 300 μg/mL hygromycin. GIPR Cell Culture Medium consisted of DMEM medium with 10% FBS, 400 μg/mL G418, and 300 μg/mL hygromycin. Assay Buffer consisted of DMEM w/o phenol red, 10 mM Hepes, 1×Glutamax, 1% ovalbumin, and 0.1% Pluronic F-68 with the addition of HSA at twice the final assay concentration.
(§6) • 1) Cells were plated at 5000 cells/well and incubated overnight in the assay plate. • 2) Cells were washed once in DPBS. • 3) Stocks of the test compounds and reference compounds in concentrations ranging from 100-300 μM were diluted 1:150 in Assay Buffer. Compounds were then diluted 1:10 in column 1 of a 96 deep well dilution plate and then carried across the row creating a 3.5 fold, 12 point dilution curve. • 4) Assay Buffer (50 μl aliquot) with or without HSA was added to each well in the assay plate. • 5) A 50 μl aliquot of compound or blank was transferred from the dilution plate to the assay plate containing the Assay Buffer with or without HSA. • 6) The assay plate was incubated for 3 h in a 5% CO2 incubator at 37° C. 7) The cells were washed once with DPBS. • 8) A 100 μl aliquot of DPBS was added to each well of the assay plate. • 9) A 100 μl aliquot of steadylite plus reagent (light sensitive) was added to each well of the assay plate. • 10) Each assay plate was covered with aluminum foil to protect it from light and shaken at 250 RPM for 30 min at room temperature. • 11) Each assay plate was read in a microtiter plate reader.
(§7) The data from the microtiter plate reader was first regressed in an Excel in order to calculate the x-axis, log scale concentrations based on the individual test compound's stock concentration and the dilutions of the assay. […] The software performs a non-linear regression (log(agonist) vs response). A minimum of two replicates was measured for each sample. The reported values are averages of the replicates.

human GLP-1 receptor = human GLP-1 receptor (Homo sapiens, UniProt P43220); assay: cell-based; conditions: hGLP-1R
Sequence of human GLP-1 receptor (P43220 24-463): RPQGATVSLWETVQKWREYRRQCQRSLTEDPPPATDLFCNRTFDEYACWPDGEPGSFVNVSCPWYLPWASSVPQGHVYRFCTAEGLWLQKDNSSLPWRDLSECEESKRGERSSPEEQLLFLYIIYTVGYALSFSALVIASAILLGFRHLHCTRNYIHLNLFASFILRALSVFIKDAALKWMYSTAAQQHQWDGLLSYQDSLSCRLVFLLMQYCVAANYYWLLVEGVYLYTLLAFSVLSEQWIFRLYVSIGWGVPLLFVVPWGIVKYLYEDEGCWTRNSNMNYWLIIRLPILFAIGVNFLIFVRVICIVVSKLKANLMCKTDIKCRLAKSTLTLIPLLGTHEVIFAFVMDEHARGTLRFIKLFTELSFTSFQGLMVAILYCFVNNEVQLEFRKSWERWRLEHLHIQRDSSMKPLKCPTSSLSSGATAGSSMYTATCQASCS
Description: as §1, §2, §3, §4, §5, §6, §7

Q: What does the source list for `CC[C@H](C)[C@H](NC(=O)[C@H](CO)NC(=O)[C@H](Cc1ccc(O)cc1)NC(=O)[C@H](CC(=O)O)NC(=O)[C@H](CO)NC(=O)[C@@H](NC(=O)[C@H](Cc1ccccc1)NC(=O)[C@@H](NC(=O)CNC(=O)[C@H](CCC(=O)O)NC(=O)C(C)(C)NC(=O)[C@@H](N)Cc1ccc(O)cc1)[C@@H](C)O)[C@@H](C)O)C(=O)N[C@@H](Cc1ccc(O)cc1)C(=O)N[C@@H](CC(C)C)C(=O)N[C@@H](CCC(=O)O)C(=O)N[C@@H](CCCCN)C(=O)N[C@@H](CCC(N)=O)C(=O)N[C@@H](C)C(=O)N[C@@H](C)C(=O)NC(C)(C)C(=O)N[C@@H](CCCCNC(=O)[C@@H](N)CCCCNC(=O)[C@@H](N)CCCCNC(=O)CC[C@H](NC(=O)CCCCCCCCCCCCCCCCC(=O)O)C(=O)O)C(=O)N[C@@H](Cc1ccccc1)C(=O)N[C@H](C(=O)N[C@@H](CC(N)=O)C(=O)N[C@@H](Cc1c[nH]c2ccccc12)C(=O)N[C@@H](CC(C)C)C(=O)N[C@@H](CC(C)C)C(=O)N[C@@H](C)C(=O)NCC(=O)NCC(=O)N1CCC[C@H]1C(=O)N[C@@H](CO)C(=O)N[C@@H](CO)C(=O)NCC(=O)N[C@@H](C)C(=O)N1CCC[C@H]1C(=O)N1CCC[C@H]1C(=O)N1CCC[C@H]1C(=O)N[C@@H](CO)C(N)=O)C(C)C` [Compound 15] (H-Y[Aib]EGTFTSDYSIYLEKQAA[Aib]K([εLys-εLys-γGlu-C18 diacid])FVNWLLAGGPSSGAPPPS-NH2; N-terminus assumed)?
A: EC50 (mouse GLP-1 receptor): 1.7 pM; EC50 (mouse GIP receptor): 27.3 pM; EC50 (human GLP-1 receptor; CRE Luc 0% HSA EC50, 0% HSA): 6.1 pM; EC50 (human GLP-1 receptor; CRE Luc 1% HSA EC50, 1% HSA): 128 pM

Q: `CC[C@H](C)[C@H](NC(=O)[C@H](CO)NC(=O)[C@H](Cc1ccc(O)cc1)NC(=O)[C@H](CC(=O)O)NC(=O)[C@H](CO)NC(=O)[C@@H](NC(=O)[C@H](Cc1ccccc1)NC(=O)[C@@H](NC(=O)CNC(=O)[C@H](CCC(=O)O)NC(=O)C(C)(C)NC(=O)[C@@H](N)Cc1ccc(O)cc1)[C@@H](C)O)[C@@H](C)O)C(=O)N[C@@H](Cc1ccc(O)cc1)C(=O)N[C@@H](CC(C)C)C(=O)N[C@@H](CCC(=O)O)C(=O)N[C@@H](CCCCNC(=O)[C@@H](N)CCCCNC(=O)[C@@H](N)CCCCNC(=O)CC[C@H](NC(=O)[C@H]1CC[C@H](CNC(=O)CCCCCCCCCCCCCCCCCCC(=O)O)CC1)C(=O)O)C(=O)N[C@@H](CCC(N)=O)C(=O)N[C@@H](C)C(=O)N[C@@H](C)C(=O)NC(C)(C)C(=O)N[C@@H](CCC(=O)O)C(=O)N[C@@H](Cc1ccccc1)C(=O)N[C@H](C(=O)N[C@@H](CCC(N)=O)C(=O)N[C@@H](Cc1c[nH]c2ccccc12)C(=O)N[C@@H](CC(C)C)C(=O)N[C@@H](CC(C)C)C(=O)N[C@@H](CCC(=O)O)C(=O)NCC(=O)NCC(=O)N1CCC[C@H]1C(=O)N[C@@H](CO)C(=O)N[C@@H](CO)C(=O)NCC(=O)N[C@@H](C)C(N)=O)C(C)C` [Compound 33] (H-Y[Aib]EGTFTSDYSIYLEK([εLys-εLys-γGlu-Trx-C20 diacid])QAA[Aib]EFVQWLLEGGPSSGA-NH2; N-terminus assumed) was tested. Which EC50 (mouse GLP-1 receptor) did it give?
A: 4 pM

Q: What about the EC50 (mouse GIP receptor) of the same molecule?
A: 31.1 pM

Q: What about the EC50 (human GLP-1 receptor; CRE Luc 0% HSA EC50, 0% HSA) of the same molecule?
A: 5.9 pM

Q: What about the EC50 (human GLP-1 receptor; CRE Luc 1% HSA EC50, 1% HSA) of the same molecule?
A: 741 pM

Q: Which EC50 (mouse GLP-1 receptor) does the source give for `CC[C@H](C)[C@H](NC(=O)[C@H](CO)NC(=O)[C@H](Cc1ccc(O)cc1)NC(=O)[C@H](CC(=O)O)NC(=O)[C@H](CO)NC(=O)[C@@H](NC(=O)[C@H](Cc1ccccc1)NC(=O)[C@@H](NC(=O)CNC(=O)[C@H](CCC(=O)O)NC(=O)C(C)(C)NC(=O)[C@@H](N)Cc1ccc(O)cc1)[C@@H](C)O)[C@@H](C)CC)C(=O)N[C@@H](Cc1ccc(O)cc1)C(=O)N[C@@H](CC(C)C)C(=O)N[C@@H](CC(=O)O)C(=O)N[C@@H](CCCCN)C(=O)N[C@@H](CCC(N)=O)C(=O)N[C@@H](C)C(=O)N[C@@H](C)C(=O)NC(C)(C)C(=O)N[C@@H](CCCCNC(=O)[C@@H](N)CCCCNC(=O)[C@@H](N)CCCCNC(=O)CC[C@H](NC(=O)CCCCCCCCCCCCCCCCC(=O)O)C(=O)O)C(=O)N[C@@H](Cc1ccccc1)C(=O)N[C@H](C(=O)N[C@@H](CC(N)=O)C(=O)N[C@@H](Cc1c[nH]c2ccccc12)C(=O)N[C@@H](CC(C)C)C(=O)N[C@@H](CC(C)C)C(=O)N[C@@H](C)C(=O)NCC(=O)NCC(=O)N1CCC[C@H]1C(=O)N[C@@H](CO)C(=O)N[C@@H](CO)C(=O)NCC(=O)N[C@@H](C)C(=O)N1CCC[C@H]1C(=O)N1CCC[C@H]1C(=O)N1CCC[C@H]1C(=O)N[C@@H](CO)C(N)=O)C(C)C` [Compound 11] (H-Y[Aib]EGTFISDYSIYLDKQAA[Aib]K([εLys-εLys-γGlu-C18 diacid])FVNWLLAGGPSSGAPPPS-NH2; N-terminus assumed) here?
A: 281 pM

Q: What about the EC50 (mouse GIP receptor) of the same molecule?
A: 13.7 pM

Q: And the EC50 (human GLP-1 receptor; CRE Luc 0% HSA EC50, 0% HSA)?
A: 394 pM

Q: Which results are given for `CC[C@H](C)[C@H](NC(=O)[C@H](CO)NC(=O)[C@H](Cc1ccc(O)cc1)NC(=O)[C@H](CC(=O)O)NC(=O)[C@H](CO)NC(=O)[C@@H](NC(=O)[C@H](Cc1ccccc1)NC(=O)[C@@H](NC(=O)CNC(=O)[C@H](CCC(=O)O)NC(=O)C(C)(C)NC(=O)[C@@H](N)Cc1ccc(O)cc1)[C@@H](C)O)[C@@H](C)O)C(=O)N[C@@H](Cc1ccc(O)cc1)C(=O)N[C@@H](CC(C)C)C(=O)N[C@@H](CCC(=O)O)C(=O)N[C@@H](CCC(=O)O)C(=O)N[C@@H](CCC(N)=O)C(=O)N[C@@H](C)C(=O)N[C@@H](C)C(=O)NC(C)(C)C(=O)N[C@@H](CCCCNC(=O)COCCOCCNC(=O)COCCOCCNC(=O)CC[C@H](NC(=O)CCCCCCCCCCCCCCCCCCC(=O)O)C(=O)O)C(=O)N[C@@H](Cc1ccccc1)C(=O)N[C@H](C(=O)N[C@@H](CC(N)=O)C(=O)N[C@@H](Cc1c[nH]c2ccccc12)C(=O)N[C@@H](CC(C)C)C(=O)N[C@@H](CC(C)C)C(=O)N[C@@H](C)C(=O)NCC(=O)NCC(=O)N1CCC[C@H]1C(=O)N[C@@H](CO)C(=O)N[C@@H](CO)C(=O)NCC(=O)N[C@@H](C)C(=O)N1CCC[C@H]1C(=O)N1CCC[C@H]1C(=O)N1CCC[C@H]1C(=O)N[C@@H](CO)C(N)=O)C(C)C` [Compound 26] (H-Y[Aib]EGTFTSDYSIYLEEQAA[Aib]K([AEEA-AEEA-γGlu-C20 diacid])FVNWLLAGGPSSGAPPPS-NH2; N-terminus assumed)?
A: EC50 (mouse GLP-1 receptor): 2.8 pM; EC50 (mouse GIP receptor): 776 pM; EC50 (human GLP-1 receptor; CRE Luc 0% HSA EC50, 0% HSA): 4.7 pM; EC50 (human GLP-1 receptor; CRE Luc 1% HSA EC50, 1% HSA): 370 pM

Q: Which EC50 (mouse GLP-1 receptor) does the source give for `CC[C@H](C)[C@H](NC(=O)[C@H](CO)NC(=O)[C@H](Cc1ccc(O)cc1)NC(=O)[C@H](CC(=O)O)NC(=O)[C@H](CO)NC(=O)[C@@H](NC(=O)[C@H](Cc1ccccc1)NC(=O)[C@@H](NC(=O)CNC(=O)[C@H](CCC(=O)O)NC(=O)C(C)(C)NC(=O)[C@@H](N)Cc1ccc(O)cc1)[C@@H](C)O)[C@@H](C)O)C(=O)N[C@@H](Cc1ccc(O)cc1)C(=O)N[C@@H](CC(C)C)C(=O)N[C@@H](CCC(=O)O)C(=O)N[C@@H](CCCCN)C(=O)N[C@@H](CCCCNC(=O)[C@@H](N)CCCCNC(=O)[C@@H](N)CCCCNC(=O)CC[C@H](NC(=O)[C@H]1CC[C@H](CNC(=O)CCCCCCCCCCCCCCCCCCC(=O)O)CC1)C(=O)O)C(=O)N[C@@H](C)C(=O)N[C@@H](C)C(=O)NC(C)(C)C(=O)N[C@@H](CCC(=O)O)C(=O)N[C@@H](Cc1ccccc1)C(=O)N[C@H](C(=O)N[C@@H](CCC(N)=O)C(=O)N[C@@H](Cc1c[nH]c2ccccc12)C(=O)N[C@@H](CC(C)C)C(=O)N[C@@H](CC(C)C)C(=O)N[C@@H](CCC(=O)O)C(=O)NCC(=O)NCC(=O)N1CCC[C@H]1C(=O)N[C@@H](CO)C(=O)N[C@@H](CO)C(=O)NCC(=O)N[C@@H](C)C(=O)N1CCC[C@H]1C(=O)N1CCC[C@H]1C(=O)N1CCC[C@H]1C(=O)N[C@@H](CO)C(N)=O)C(C)C` [Compound 34] (H-Y[Aib]EGTFTSDYSIYLEKK([εLys-εLys-γGlu-Trx-C20 diacid])AA[Aib]EFVQWLLEGGPSSGAPPPS-NH2; N-terminus assumed) here?
A: 1.8 pM

Q: What about the EC50 (mouse GIP receptor) of the same molecule?
A: 19.5 pM

Q: And the EC50 (human GLP-1 receptor; CRE Luc 0% HSA EC50, 0% HSA)?
A: 3.2 pM

Q: And the EC50 (human GLP-1 receptor; CRE Luc 1% HSA EC50, 1% HSA)?
A: 379 pM
